Measurements published in PMC11597089, “Kratom Alkaloids: A Blood–Brain Barrier Specific Membrane Permeability Assay-Guided Isolation and Cyclodextrin Complexation Study” (Molecules, 2024).

Assay: ACE complex stability, α-CD
Format: physicochemical
Settings: 30 mM phosphate buffer pH 7.4, 25 °C, 15 kV, 215 nm
Method: (§1) To investigate the CD complexation behavior of the four kratom alkaloids, we aimed to develop an ACE method for a systematic comparative study. […] To ensure sufficient buffer capacity and to avoid excessive current and Joule heat generation, the buffer concentration was set to 30 mM, and the applied voltage was 15 kV.
(§2) The ACE experiments were performed by using Agilent 7100 and HP^3DCE instruments (Agilent Technologies, Waldbronn, Germany). Untreated fused silica capillaries (total length of 48.5 cm, effective length of 40 cm, inner diameter of 50 μm) were purchased from Agilent Technologies. The new capillaries were conditioned with a 1 M NaOH wash for 1 h, followed by a 30 min wash each with 0.1 M NaOH and purified water. Prior to all runs, the capillary was preconditioned by rinsing with background electrolyte for 3 min. During the measurements, 30 mM phosphate buffer at pH 7.4 (30 mM Na2HPO4-NaOH) was used. The background electrolyte contained CDs at various concentrations. Stock solutions of the studied kratom alkaloids (mitragynine, paynantheine, speciogynine, speciociliatine) were prepared separately in methanol (1 mg/mL), and, right before the measurements, appropriate dilutions with purified water were used to prepare the sample solutions, applying 0.1% DMSO as the electroosmotic flow (EOF) marker. The samples were injected hydrodynamically at 40 mbar for 3 s. The positive polarity voltage was set to 15 kV, and the capillary was set to 25 °C. The electropherograms were recorded at four wavelengths (200 nm, 210 nm, 215 nm, and 220 nm), and the data were evaluated at 215 nm. In each case, three parallel measurements were performed. The measurements were evaluated using Origin and CEval software (v. 0.6i3).
(§3) In order to determine the complex stability constants that characterized the strength of the complexes, the first step was to determine the effective mobility of the analyte at specific CD concentrations. Triangular peaks caused by electromigration dispersion are often observed in ACE measurements.
(§4) Assuming a 1:1 complexation ratio and that the equilibrium CD concentration is almost equal to the total CD concentration, a relationship between the effective mobility relative to the EOF and the complex stability constant can be described by Function (4) (4) μeff=μA+μACDKstabCD/1+KstabCD where µeff is the effective mobility of the analyte, µA and µACD are the free and complexed analyte mobilities, [CD] is the concentration of the selector, and Kstab is the complex stability constant.
(§5) In order to calculate the exact, apparent, averaged complex stability constant values, viscosity correction and ionic strength correction were used.

| Structure (SMILES) | complex stability constant (Kstab) with α-CD |
| --- | --- |
| CC[C@@H]1CN2CCc3c([nH]c4cccc(OC)c34)[C@H]2C[C@@H]1/C(=C\OC)C(=O)OC [Speciociliatine, speciociliatine] | 22 ± 3 M⁻¹ |

Assay: ACE complex stability, γ-CD
Format: physicochemical
Settings: 30 mM phosphate buffer pH 7.4, 25 °C, 15 kV, 215 nm
Method: as §1, §2, §3, §4, §5

| Structure (SMILES) | complex stability constant (Kstab) with γ-CD |
| --- | --- |
| CC[C@@H]1CN2CCc3c([nH]c4cccc(OC)c34)[C@H]2C[C@@H]1/C(=C\OC)C(=O)OC [Speciociliatine, speciociliatine] | 15 ± 1 M⁻¹ |

Assay: ACE complex stability, DIME-β-CD
Format: physicochemical
Settings: dimethylated-β-CD DS~14, 30 mM phosphate buffer pH 7.4, 25 °C
Method: as §1, §2
as §3, with “measurements. […]” for “measurements.”

| Structure (SMILES) | complex stability constant (Kstab) with DIME-β-CD |
| --- | --- |
| CC[C@@H]1CN2CCc3c([nH]c4cccc(OC)c34)[C@H]2C[C@@H]1/C(=C\OC)C(=O)OC [Speciociliatine, speciociliatine] | 100 ± 6 M⁻¹ |

Assay: ACE complex stability, RAME-β-CD
Format: physicochemical
Settings: randomly methylated-β-CD DS~12, 30 mM phosphate buffer pH 7.4, 25 °C
Method: as §1, §2, §3, §4, §5

| Structure (SMILES) | complex stability constant (Kstab) with RAME-β-CD |
| --- | --- |
| CC[C@@H]1CN2CCc3c([nH]c4cccc(OC)c34)[C@H]2C[C@@H]1/C(=C\OC)C(=O)OC [Speciociliatine, speciociliatine] | 20 ± 2 M⁻¹ |

Assay: ACE complex stability, HP-γ-CD
Format: physicochemical
Settings: hydroxypropylated-γ-CD DS~3, 30 mM phosphate buffer pH 7.4, 25 °C
Method: as §1, §2
as §3, with “measurements. […]” for “measurements.”

| Structure (SMILES) | complex stability constant (Kstab) with HP-γ-CD |
| --- | --- |
| CC[C@@H]1CN2CCc3c([nH]c4cccc(OC)c34)[C@H]2C[C@@H]1/C(=C\OC)C(=O)OC [Speciociliatine, speciociliatine] | 220 ± 25 M⁻¹ |

Assay: ACE complex stability, CM-β-CD
Format: physicochemical
Settings: carboxymethylated-β-CD DS~3, 30 mM phosphate buffer pH 7.4, 25 °C
Method: as §1, §2, §3, §4, §5

| Structure (SMILES) | complex stability constant (Kstab) with CM-β-CD |
| --- | --- |
| CC[C@@H]1CN2CCc3c([nH]c4cccc(OC)c34)[C@H]2C[C@@H]1/C(=C\OC)C(=O)OC [Speciociliatine, speciociliatine] | 230 ± 20 M⁻¹ |

Assay: ACE complex stability, CM-γ-CD
Format: physicochemical
Settings: carboxymethylated-γ-CD DS~4, 30 mM phosphate buffer pH 7.4, 25 °C
Method: as §1, §2, §3, §4, §5

| Structure (SMILES) | complex stability constant (Kstab) with CM-γ-CD |
| --- | --- |
| CC[C@@H]1CN2CCc3c([nH]c4cccc(OC)c34)[C@H]2C[C@@H]1/C(=C\OC)C(=O)OC [Speciociliatine, speciociliatine] | 120 ± 12 M⁻¹ |

Assay: ACE complex stability, CE-β-CD
Format: physicochemical
Settings: carboxyethylated-β-CD DS~3, 30 mM phosphate buffer pH 7.4, 25 °C
Method: as §1, §2, §3, §4, §5

| Structure (SMILES) | complex stability constant (Kstab) with CE-β-CD |
| --- | --- |
| CC[C@@H]1CN2CCc3c([nH]c4cccc(OC)c34)[C@H]2C[C@@H]1/C(=C\OC)C(=O)OC [Speciociliatine, speciociliatine] | 160 ± 10 M⁻¹ |

Assay: ACE complex stability, Sualfadex
Format: physicochemical
Settings: hexakis-(6-deoxy-6-(2-carboxyethyl)thio)-α-CD, 30 mM phosphate buffer pH 7.4, 25 °C
Method: as §1, §2, §3, §4, §5

| Structure (SMILES) | complex stability constant (Kstab) with Sualfadex |
| --- | --- |
| CC[C@@H]1CN2CCc3c([nH]c4cccc(OC)c34)[C@H]2C[C@@H]1/C(=C\OC)C(=O)OC [Speciociliatine, speciociliatine] | 250 ± 45 M⁻¹ |

Assay: ACE complex stability, Succ-β-CD
Format: physicochemical
Settings: succinyl-β-CD DS~6, 30 mM phosphate buffer pH 7.4, 25 °C
Method: as §1, §2, §3, §4, §5

| Structure (SMILES) | complex stability constant (Kstab) with Succ-β-CD |
| --- | --- |
| CC[C@@H]1CN2CCc3c([nH]c4cccc(OC)c34)[C@H]2C[C@@H]1/C(=C\OC)C(=O)OC [Speciociliatine, speciociliatine] | 470 ± 35 M⁻¹ |

Assay: ACE complex stability, Phos-β-CD
Format: physicochemical
Settings: phosphated-β-CD DS~2-6, 30 mM phosphate buffer pH 7.4, 25 °C
Method: as §1, §2, §3, §4, §5

| Structure (SMILES) | complex stability constant (Kstab) with Phos-β-CD |
| --- | --- |
| CC[C@@H]1CN2CCc3c([nH]c4cccc(OC)c34)[C@H]2C[C@@H]1/C(=C\OC)C(=O)OC [Speciociliatine, speciociliatine] | 215 ± 15 M⁻¹ |

Assay: ACE complex stability, SBE-β-CD DS~4
Format: physicochemical
Settings: sulfobutyl-ether-β-CD DS~4, 30 mM phosphate buffer pH 7.4, 25 °C
Method: as §1, §2, §3, §4, §5

| Structure (SMILES) | complex stability constant (Kstab) with SBE-β-CD DS~4 |
| --- | --- |
| CC[C@@H]1CN2CCc3c([nH]c4cccc(OC)c34)[C@H]2C[C@@H]1/C(=C\OC)C(=O)OC [Speciociliatine, speciociliatine] | 670 ± 60 M⁻¹ |

Assay: ACE complex stability, HxDMS-α-CD
Format: physicochemical
Settings: hexakis-(2,3-O-dimethyl, 6-O-sulfo)-α-CD, 30 mM phosphate buffer pH 7.4, 25 °C
Method: as §1, §2, §3, §4, §5

| Structure (SMILES) | complex stability constant (Kstab) with HxDMS-α-CD |
| --- | --- |
| CC[C@@H]1CN2CCc3c([nH]c4cccc(OC)c34)[C@H]2C[C@@H]1/C(=C\OC)C(=O)OC [Speciociliatine, speciociliatine] | 240 ± 20 M⁻¹ |

Assay: ACE complex stability, HDMS-β-CD
Format: physicochemical
Settings: heptakis-(2,3-O-dimethyl, 6-O-sulfo)-β-CD, 30 mM phosphate buffer pH 7.4, 25 °C
Method: as §1, §2, §3, §4, §5

| Structure (SMILES) | complex stability constant (Kstab) with HDMS-β-CD |
| --- | --- |
| CC[C@@H]1CN2CCc3c([nH]c4cccc(OC)c34)[C@H]2C[C@@H]1/C(=C\OC)C(=O)OC [Speciociliatine, speciociliatine] | 105 ± 12 M⁻¹ |

Assay: ACE complex stability, ODMS-γ-CD
Format: physicochemical
Settings: octakis-(2,3-O-dimethyl, 6-O-sulfo)-γ-CD, 30 mM phosphate buffer pH 7.4, 25 °C
Method: as §1, §2, §3, §4, §5

| Structure (SMILES) | complex stability constant (Kstab) with ODMS-γ-CD |
| --- | --- |
| CC[C@@H]1CN2CCc3c([nH]c4cccc(OC)c34)[C@H]2C[C@@H]1/C(=C\OC)C(=O)OC [Speciociliatine, speciociliatine] | 230 ± 15 M⁻¹ |

Assay: ACE complex stability, HMDiSu-β-CD
Format: physicochemical
Settings: heptakis-(2-O-methyl, 3,6-O-disulfo)-β-CD, 30 mM phosphate buffer pH 7.4, 25 °C
Method: as §1, §2, §3, §4, §5

| Structure (SMILES) | complex stability constant (Kstab) with HMDiSu-β-CD |
| --- | --- |
| CC[C@@H]1CN2CCc3c([nH]c4cccc(OC)c34)[C@H]2C[C@@H]1/C(=C\OC)C(=O)OC [Speciociliatine, speciociliatine] | 100 ± 1 M⁻¹ |

Assay: ACE complex stability, MA-β-CD
Format: physicochemical
Settings: mono-(6-N-amino-6-deoxy)-β-CD, positively charged, 30 mM phosphate buffer pH 7.4, 25 °C
Method: as §1, §2, §3, §4, §5

| Structure (SMILES) | complex stability constant (Kstab) with MA-β-CD |
| --- | --- |
| CC[C@@H]1CN2CCc3c([nH]c4cccc(OC)c34)[C@H]2C[C@@H]1/C(=C\OC)C(=O)OC [Speciociliatine, speciociliatine] | < 10 M⁻¹ |

Assay: ACE complex stability, HPA-β-CD
Format: physicochemical
Settings: mono-6^A-(3-hydroxy)propylamino-β-CD, positively charged, 30 mM phosphate buffer pH 7.4, 25 °C
Method: as §1, §2, §3, §4, §5

| Structure (SMILES) | complex stability constant (Kstab) with HPA-β-CD |
| --- | --- |
| CC[C@@H]1CN2CCc3c([nH]c4cccc(OC)c34)[C@H]2C[C@@H]1/C(=C\OC)C(=O)OC [Speciociliatine, speciociliatine] | < 10 M⁻¹ |

Assay: ACE complex stability, PYR-β-CD
Format: physicochemical
Settings: 6-monodeoxy-6-pyrrolidine-β-CD, positively charged, 30 mM phosphate buffer pH 7.4, 25 °C
Method: as §1, §2, §3, §4, §5

| Structure (SMILES) | complex stability constant (Kstab) with PYR-β-CD |
| --- | --- |
| CC[C@@H]1CN2CCc3c([nH]c4cccc(OC)c34)[C@H]2C[C@@H]1/C(=C\OC)C(=O)OC [Speciociliatine, speciociliatine] | < 10 M⁻¹ |

Assay: ACE complex stability, PIP-β-CD
Format: physicochemical
Settings: 6-monodeoxy-6-piperidine-β-CD, positively charged, 30 mM phosphate buffer pH 7.4, 25 °C
Method: as §1, §2, §3, §4, §5

| Structure (SMILES) | complex stability constant (Kstab) with PIP-β-CD |
| --- | --- |
| CC[C@@H]1CN2CCc3c([nH]c4cccc(OC)c34)[C@H]2C[C@@H]1/C(=C\OC)C(=O)OC [Speciociliatine, speciociliatine] | < 10 M⁻¹ |

Assay: ACE complex stability, MePYR-β-CD
Format: physicochemical
Settings: mono-6^A-(N-methyl-pyrrolidine)-β-CD, positively charged, 30 mM phosphate buffer pH 7.4, 25 °C
Method: as §1, §2, §3, §4, §5

| Structure (SMILES) | complex stability constant (Kstab) with MePYR-β-CD |
| --- | --- |
| CC[C@@H]1CN2CCc3c([nH]c4cccc(OC)c34)[C@H]2C[C@@H]1/C(=C\OC)C(=O)OC [Speciociliatine, speciociliatine] | < 10 M⁻¹ |

Assay: ACE complex stability, MePIP-β-CD
Format: physicochemical
Settings: mono-6^A-(N-methyl-piperidine)-β-CD, positively charged, 30 mM phosphate buffer pH 7.4, 25 °C
Method: as §1, §2, §3, §4, §5

| Structure (SMILES) | complex stability constant (Kstab) with MePIP-β-CD |
| --- | --- |
| CC[C@@H]1CN2CCc3c([nH]c4cccc(OC)c34)[C@H]2C[C@@H]1/C(=C\OC)C(=O)OC [Speciociliatine, speciociliatine] | < 10 M⁻¹ |
